Patent publication US5043328A, “Formulations containing unsaturated fatty acids for the synthesis of prostaglandins and hydroxy-fatty acids in biological systems” (priority 1986, dated 1991)

Experiment: Storage of sodium arachidonate solution at room temperature for 6 weeks
Type: physicochemical
Details: water; solution without additions, after 6 weeks at room temperature; read-out: arachidonic acid content
Protocol: 50 mg of sodium arachidonate, 500 mg of bovine serum albumin and 500 mg of L-tyrosine are dissolved under sterile conditions in 10 ml of twice distilled water and, likewise under sterile conditions, stored in a brown bottle. 93.5% of the arachidonic acid originally present are recovered after 6 weeks' storage at room temperature, whereas the same sodium arachidonate solution without additions virtually no longer contain any arachidonic acid after this time (content <0.8). The stabilized solution prepared in this way

## CCCCC/C=C\C/C=C\C/C=C\C/C=C\CCCC(=O)O [sodium arachidonate]
  remaining at 1008 h: < 0.8%
